The text below walks through data of US20250154198A1, “PEPTIDE INHIBITORS OF INTERLEUKIN-23 RECEPTOR” (Zealand Pharma A/S, priority 2021, published 2025).

A short description of data set [1]: Peptide stability in simulated gastric fluid (SGF). Particulars: Table 3-3, porcine pepsin, pH 1.2, 37° C., 10 μM; for remaining at 1 h, 10 μM / remaining at 4 h, 10 μM: pig; for remaining at 1 h, 10 μM: read-out: SGF (% remaining 1 h); for remaining at 4 h, 10 μM: read-out: SGF (% remaining 4 h). The class given is in vitro ADME. As for the experimental part:
(§1) Determination of Peptide Stability in Simulated Gastric Fluid (SGF) and Simulated Intestinal Fluid (SIF)
(§2) SGF was prepared by dissolving sodium chloride (0.2 g) in 50 mL of water. A volume of 0.7 mL of 10 M HCl was added to adjust the pH of the solution to 1.2 and the volume made up to 100 mL with water. […] SIF was prepared by dissolving monobasic potassium phosphate (0.68 g) in 50 mL of water and adjusting the pH to 6.8 with 1 M NaOH. The volume was subsequently made up to 100 mL with water. 200 mg porcine pancreatin (P1625, Sigma Aldrich) was gently dissolved into 20 mL preheated (37° C.) solution (10 g/L) immediately prior to the incubation.
(§3) The incubation was performed at 37° C. with gentle shaking. […] After the last timepoint, the sampling plate was mixed for 10 min on a shaking table and centrifuged 10 min at 2200 g. 70 μL resulting supernatant was diluted with 150 μL water, mixed and centrifugated before analysis by liquid chromatography high resolution mass spectrometry. […] Percent remaining at each timepoint was calculated relative to timepoint zero based on absolute peak areas.

The target of data set [2] is T1, human IL-23R (Homo sapiens, UniProt Q5VWK5).
T1 construct: UniProtKB—Q5VWK5, amino acids 22-629; secretion signal of the plasmid (Promega N1371); expressed in transfected cells
T1 sequence (Q5VWK5 22-629): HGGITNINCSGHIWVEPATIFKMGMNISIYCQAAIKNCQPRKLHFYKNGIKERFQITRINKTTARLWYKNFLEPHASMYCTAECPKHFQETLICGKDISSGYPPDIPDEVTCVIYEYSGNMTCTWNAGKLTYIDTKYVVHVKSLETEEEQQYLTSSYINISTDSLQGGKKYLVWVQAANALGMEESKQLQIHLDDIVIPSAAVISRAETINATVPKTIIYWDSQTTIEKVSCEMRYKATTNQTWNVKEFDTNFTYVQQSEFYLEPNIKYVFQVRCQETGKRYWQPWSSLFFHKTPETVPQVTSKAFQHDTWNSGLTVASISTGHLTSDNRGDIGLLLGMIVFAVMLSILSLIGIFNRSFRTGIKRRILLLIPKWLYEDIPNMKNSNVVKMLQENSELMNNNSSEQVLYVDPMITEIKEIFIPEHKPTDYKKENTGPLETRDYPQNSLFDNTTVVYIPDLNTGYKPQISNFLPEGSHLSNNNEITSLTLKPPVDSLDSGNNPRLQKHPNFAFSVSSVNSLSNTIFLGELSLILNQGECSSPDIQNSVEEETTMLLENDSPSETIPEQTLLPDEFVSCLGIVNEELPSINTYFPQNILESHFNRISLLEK
Briefly: Binding assay (NanoBRET displacement of fluorophore-labelled reference compound) for estimating binding affinity to human IL-23R.

A short description of data set [3]: Peptide stability in simulated intestinal fluid (SIF). Format: in vitro ADME. Conditions: pig, Table 3-2, porcine pancreatin, pH 6.8, 37° C., 10 μM; for remaining at 1 h, 10 μM: read-out: SIF (% remaining 1 h); for remaining at 4 h, 10 μM: read-out: SIF (% remaining 4 h). Here is the method:
as §1, §2, §3

The target of data set [4] is IL-23 mediated phospho-STAT3 formation in DB cells (Homo sapiens, UniProt Q5VWK5). The data set is described as follows: Functional inhibition of IL-23 mediated STAT3 signalling (phospho-STAT3 Tyr705 MSD) in DB cells. Conditions: DB cells, read-out: IC50 (pSTAT3). The class given is cell-based. The method in brief:
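DB cells preincubated 15 min with compound at 37° C, then stimulated 90 min with hIL-23 at EC80. Lysate phospho-STAT3 measured by MSD, normalized to IL-23-alone and buffer wells; IC50 and maximal % inhibition from 4PL fit.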

Setting [5] is: simulated gastric fluid (SGF) with porcine pepsin.
[6] abbreviates: Table 3-1, read-out: Ki hIL-23R.
Where [7] appears, read: simulated intestinal fluid (SIF) with porcine pancreatin.
Setting [8] is: simulated gastric fluid (SGF) with porcine pepsin, 4 h.

In general, Ki refers to a dissociation constant, usually derived from enzyme kinetics or from competition with a known ligand. One may read the IC50 as the midpoint of a concentration-inhibition curve.

Where two headings read alike, the source gives them in different places. *1 amine or outer side, *2 acyl side, *3 side chain or, on linkers, in order; H or OH if unused. Where a SMILES comes first, the peptide text is derived from it. Bridges are numbered along the chain shown (N, C = ends). [ ]: non-standard residue; d: D form. αMeAla(3-pyridyl) = C[C@](N)(Cc1cccnc1)C(=O)O; X10 = C[C@@](Cc1ccc(F)cc1)(N[*:1])C(=O)[*:2]; Trp(1-Me) = Cn1cc(C[C@H](N)C(=O)O)c2ccccc21; Phe(3,4-Me2) = Cc1ccc(C[C@H](N)C(=O)O)cc1C; Bip = N[C@@H](Cc1ccc(-c2ccccc2)cc1)C(=O)O; 2Nal = N[C@@H](Cc1ccc2ccccc2c1)C(=O)O; AEF = NCCOc1ccc(C[C@H](N)C(=O)O)cc1; X1 = O=C(Cc1ccc(CN[*:1])cc1)[*:2]; αMeR = C[C@](N)(CCCNC(=N)N)C(=O)O; αMeL = CC(C)C[C@](C)(N)C(=O)O; CH2COCH2 = O=C(C[*:1])C[*:2]; αMeV = CC(C)[C@](C)(N)C(=O)O; 3Amb = NCc1cccc(C(=O)O)c1; Dab = NCC[C@H](N)C(=O)O Bounds are passed on as bounds.

Turning to `CC(C)C[C@]1(C)NC(=O)[C@H](Cc2ccc3ccccc3c2)NC(=O)[C@H](Cc2ccc(OCCN)cc2)NC(=O)[C@@H]2CSCC(=O)CSC[C@H](NC(=O)[C@H](CO)NC(=O)c3cccc(c3)CNC(=O)CC[C@@H](C(=O)N[C@@](C)(CCCNC(=N)N)C(N)=O)NC1=O)C(=O)N[C@@H](Cc1c[nH]c3ccccc13)C(=O)N[C@@H](CCC(N)=O)C(=O)N2` [Compound 42, [(3-Aminomethyl)benzoyl](1c)*SC(2a)WQC(2a)[Y(2-aminoethoxy)][2-Nal][2-Me-Leu]E(1c)[2-Me-Arg]-[NH2]] ([3Amb]SCWQC[AEF][2Nal][αMeL]E[αMeR]-NH2; linker 3-6 via CH2COCH2; lactam N-10), the fraction remaining at 1 h, 10 μM in data set [1] (setting [5]) is 90%. Further, the Ki in data set [2] (setting [6]) was 2.76 nM.

Take `CC(=O)N[C@H]1CCSC[C@@H](C(=O)N[C@@H](Cc2ccc(OCCN)cc2)C(=O)N[C@@H](Cc2c[nH]c3ccccc23)C(=O)N[C@@](C)(CCCCN)C(=O)N[C@@H](CCC(=O)O)C(=O)N[C@@H](CC(N)=O)C(=O)NCC(N)=O)NC(=O)[C@H](CCC(N)=O)NC(=O)[C@H](Cc2c[nH]c3ccccc23)NC(=O)[C@H]([C@@H](C)O)NC(=O)[C@H](CCC(N)=O)NC1=O` [Compound C, [Ac]-[Abu](16i)QTWQC(16i)[Y(2-aminoethoxy)]W[2-Me-Lys]ENG-[NH2], reference compound]: in data set [1] (setting [5]), the amount remaining at 1 h, 10 μM was 100%. Moreover, in data set [3] (setting [7]), the amount remaining at 1 h, 10 μM was 92% and the amount remaining at 4 h, 10 μM is 76%.

As to `CC[C@H](C)[C@@H]1NC(=O)Cc2ccc(cc2)CNC(=O)CC[C@@H](C(=O)N[C@@H](CCN)C(=O)N[C@@](C)(Cc2cccnc2)C(N)=O)NC(=O)[C@](C)(C(C)C)NC(=O)[C@H](Cc2ccc(C)c(C)c2)NC(=O)[C@H](Cc2ccc(OCCN)cc2)NC(=O)[C@@H]2CCNC(=O)CC[C@H](NC1=O)C(=O)N[C@@H](Cc1c[nH]c3ccccc13)C(=O)N[C@@H](CCC(N)=O)C(=O)N2` [Compound 165, [4-Aminomethyl-phenylacetyl](1c)*IE(2c)WQ[Dab](2c)[Y(2-aminoethoxy)][F(3,4-Me)][2-Me-Val]E(1c)[Dab][2-Me-3-(3-Pyridyl)-Ala]-[NH2]] ([X1]IEWQ[Dab][AEF][Phe(3,4-Me2)][αMeV]E[Dab][αMeAla(3-pyridyl)]-NH2; lactam 3-6, N-10), the fraction remaining at 4 h, 10 μM in data set [1] (setting [8]) and in data set [3] (setting [7]) was 109% in each case.

On to `CC[C@H](C)[C@@H]1NC(=O)Cc2ccc(cc2)CNC(=O)CC[C@@H](C(=O)N[C@@H](CCN)C(=O)N[C@@](C)(Cc2cccnc2)C(N)=O)NC(=O)[C@](C)(C(C)C)NC(=O)[C@H](Cc2ccc(C)c(C)c2)NC(=O)[C@](C)(Cc2ccc(F)cc2)NC(=O)[C@@H]2CCNC(=O)CC[C@H](NC1=O)C(=O)N[C@@H](Cc1c[nH]c3ccccc13)C(=O)N[C@@H](CCC(N)=O)C(=O)N2` [Compound 169, [4-Aminomethyl-phenylacetyl](1c)*IE(2c)WQ[Dab](2c)[2-Me-F(4-F)][F(3,4-Me)][2-Me-Val]E(1c)[Dab][2-Me-3-(3-Pyridyl)-Ala]-[NH2]] ([X1]IEWQ[Dab][X10][Phe(3,4-Me2)][αMeV]E[Dab][αMeAla(3-pyridyl)]-NH2; lactam 3-6, N-10), for which, in data set [1] (4 h), the “SGF (% remaining 4 h)” value was 121%. In addition, the fraction remaining at 4 h, 10 μM in data set [3] (setting [7]) was 72%.

For `CC(=O)N[C@@H](CC(=O)O)C(=O)N[C@H]1CCC(=O)NCCCC[C@@H](C(=O)NCC(N)=O)NC(=O)[C@](C)(CC(C)C)NC(=O)[C@H](Cc2ccc3ccccc3c2)NC(=O)[C@H](Cc2c[nH]c3ccccc23)NC(=O)[C@@H]2CSCC(=O)CSC[C@H](NC(=O)[C@H](CO)NC1=O)C(=O)N[C@@H](Cc1c[nH]c3ccccc13)C(=O)N[C@@H](CCC(N)=O)C(=O)N2` [Compound 60, [Ac]-DE(1c)SC(2a)WQC(2a)W[2-Nal][2-Me-Leu]K(1c)G-[NH2]] (Ac-DESCWQCW[2Nal][αMeL]KG-NH2; lactam 2-11; linker 4-7 via CH2COCH2), the results for the fraction remaining at 1 h, 10 μM in data set [1] (setting [5]) and in data set [3] (setting [7]) were 7% and 69%, respectively. Besides, the amount remaining at 4 h, 10 μM in data set [1] (setting [8]) was 0%; in data set [3] (setting [7]), 12%.

On to `CC(=O)N[C@H]1CCCCNC(=O)CC[C@@H](C(=O)N[C@@H](CCCNC(=N)N)C(N)=O)NC(=O)[C@H](CC(C)C)NC(=O)[C@H](Cc2ccc3ccccc3c2)NC(=O)[C@H](Cc2c[nH]c3ccccc23)NC(=O)[C@@H]2CSCC(=O)CSC[C@H](NC(=O)[C@H](CO)NC1=O)C(=O)N[C@@H](Cc1cn(C)c3ccccc13)C(=O)N[C@@H](CCC(N)=O)C(=O)N2` [Compound 27, [Ac]-K(1c)SC(2a)[1-Me-Trp]QC(2a)W[2-Nal]LE(1c)R-[NH2]] (Ac-KSC[Trp(1-Me)]QCW[2Nal]LER-NH2; lactam 1-10; linker 3-6 via CH2COCH2), for which the amount remaining at 1 h, 10 μM in data set [1] (setting [5]) and in data set [3] (setting [7]) was 0% in each case. Moreover, the share remaining at 4 h, 10 μM in data set [1] (setting [8]) and in data set [3] (setting [7]) was 0% in each case.

With `CC(C)C[C@]1(C)NC(=O)[C@H](Cc2c[nH]c3ccccc23)NC(=O)[C@H](Cc2c[nH]c3ccccc23)NC(=O)[C@@H]2CSCC(=O)CSC[C@H](NC(=O)[C@H](CO)NC(=O)[C@@H](NC(=O)[C@@H](N)CC(=O)O)CSCC(=O)CSC[C@@H](C(=O)N[C@@H](CCCNC(=N)N)C(N)=O)NC1=O)C(=O)N[C@@H](Cc1c[nH]c3ccccc13)C(=O)N[C@@H](CCC(N)=O)C(=O)N2` [Compound 1, H-DC(1a)SC(2a)WQC(2a)WW[2-Me-Leu]C(1a)R-[NH2]], the amount remaining at 1 h, 10 μM in data set [1] is 86%; in data set [3], 0%. Further, the share remaining at 4 h, 10 μM in data set [1] (4 h) is 68%; in data set [3] it was 0%.

With `CC(=O)N[C@H]1CCCCNC(=O)CC[C@@H](C(=O)N[C@@H](CCCNC(=N)N)C(N)=O)NC(=O)[C@H](CC(C)C)NC(=O)[C@H](Cc2ccc3ccccc3c2)NC(=O)[C@H](Cc2c[nH]c3ccccc23)NC(=O)[C@@H]2CSCC(=O)CSC[C@H](NC(=O)[C@H](CO)NC1=O)C(=O)N[C@@H](Cc1ccc(-c3ccccc3)cc1)C(=O)N[C@@H](CCC(N)=O)C(=O)N2` [Compound 26, [Ac]-K(1c)SC(2a)[Bip]QC(2a)W[2-Nal]LE(1c)R-[NH2]] (Ac-KSC[Bip]QCW[2Nal]LER-NH2; lactam 1-10; linker 3-6 via CH2COCH2), in data set [4] (Table 3-1), the IC50 is over 1000 nM. Moreover, the Ki in data set [2] (setting [6]) is over 1000 nM.

For `CC(=O)N[C@H]1CCCCNC(=O)CC[C@@H](C(=O)N[C@@H](CCCNC(=N)N)C(N)=O)NC(=O)[C@H](CC(C)C)NC(=O)[C@H](Cc2ccc3ccccc3c2)NC(=O)[C@H](Cc2ccc(OCCN)cc2)NC(=O)[C@@H]2CSCC(=O)CSC[C@H](NC(=O)[C@H](CO)NC1=O)C(=O)N[C@@H](Cc1c[nH]c3ccccc13)C(=O)N[C@@H](CCC(N)=O)C(=O)N2` [Compound 29, [Ac]-K(1c)SC(2a)WQC(2a)[Y(2-aminoethoxy)][2-Nal]LE(1c)R-[NH2]] (Ac-KSCWQC[AEF][2Nal]LER-NH2; lactam 1-10; linker 3-6 via CH2COCH2), in data set [4] (Table 2-9b), the half-inhibitory concentration (IC50) was found to be 19.7 nM. For the same molecule, the Ki in data set [2] (Table 2-9b, read-out: Ki IL-23R) was 0.64 nM; in data set [2] (setting [6]), 0.68 nM.
